Results from the supplement of paper PMC11997997.

Columns and labels:
[1] = test system: murine bone marrow-derived macrophages; assay: area under cytotoxicity dose-response curve (AUC (% cytotoxicity x dose, relative)); higher = more cytotoxic; details: duration: 6 days; dose range: 0.13-80 uM, 8 points
Outline: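 Using opaque 384-well plates, primary murine bone marrow-derived macrophages were treated for 6 days at 37 °C in 5% CO2 with an 8-point, 2.5-fold dilution series spanning final concentrations of 80–0.13 μM. After CellTiter-Glo (Promega) luminescence readout of viability, percent cytotoxicity was normalised to vehicle and positive control wells. The reported value is the area under the dose–response curve for cytotoxicity, derived in GraphPad Prism version 10.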

[2] = test system: Mycobacterium tuberculosis CDC1551 (intracellular, in murine BMDM); assay: area under intracellular growth-inhibition dose-response curve (AUC (% inhibition x dose, relative)); higher = more potent; details: duration: 6 days; dose range: 0.13-80 uM, 8 points
Outline: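 Primary murine bone marrow-derived macrophages in 384-well opaque plates were infected 24 h after seeding with luciferase-expressing M. tuberculosis CDC1551 at multiplicity of infection 1 for 1 h. They were then treated with an 8-dose, 2.5-fold series (final 80–0.13 μM) for 6 days. Growth was read by Bright-Glo luciferin assay and normalised to a reference drug control and the lowest-concentration wells. The value is the area under the growth-inhibition dose–response curve, calculated in GraphPad Prism.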

SMILES	area under cytotoxicity dose-response curve [1]	area under intracellular growth-inhibition dose-response curve [2]
O=c1c2cc(Cl)ccc2oc2nc3n(c(=O)c12)CCCS3	33.5	216
COc1ccc(CCNC(=O)c2c(C)nc3ccccn23)cc1	< 0	198
O=C(NCC1CCCCC1)c1ccco1	106	251
CC(C)CC(=O)NC(=S)Nc1ccc(NC(=O)c2cccs2)cc1	33.2	271
CC(=O)NC(=S)Nc1ccc(NC(=O)c2cccnc2Cl)cc1	< 0	262
COc1cc(/C=N/NC(N)=S)ccc1OC(=O)c1ccc(C)cc1	23.5	264
CC(=O)Nc1sc(N/N=C/c2ccc(N(C)C)cc2)nc1-c1ccc(C)cc1	6.8	263
CSc1ncccc1C(=O)OCC(=O)c1ccc[nH]1	< 0	159
CCC(=O)NC(=S)Nc1ccc(NC(=O)c2ccccc2[N+](=O)[O-])cc1	32.7	267
O=C(COC(=O)c1ccccc1O)NC1CCCc2ccccc21 (configuration not stated)	< 0	126
FC(F)Oc1ccc(NC(=S)Nc2ccc3c[nH]nc3c2)cc1	< 0	219
Cc1ccc(-n2c(C)cc(/C=N/NC(N)=S)c2C)cc1	26	233
CC1CCN(C(=O)c2ccc(CNc3c(N4CCCC4)c(=O)c3=O)cc2)CC1	78.3	166
CN1CCN(c2c(F)cc3c(=O)c(C(=O)[O-])cn4c3c2OCN4C)CC1	18.2	187
COc1ccc2nc(N3CCN(C(=O)c4ccc([N+](=O)[O-])o4)CC3)sc2c1	87	33.1
CCOc1ccc(/C=N/n2cc(-c3ccccc3)nc2S)cc1	< 0	265
CCOC(=O)c1c(NC(=O)CN2C(=O)N(C)C3(CCCCC3)C2=O)sc(C(=O)N(C)C)c1C	38.6	65
COc1ccc(-c2n(C)c3ccccc3[n+]2CC(=O)OC2CC(C)CCC2C(C)C)cc1.[Cl-] (configuration not stated)	117	140
C[C@H]1c2cccc(O)c2C(=O)C2C(=O)C3(O)C(=O)C(C(N)=O)C(=O)[C@@H](N(C)C)[C@@H]3[C@@H](O)[C@@H]21.Cl (some centres not stated)	33.4	259
CCOC(=O)c1ccccc1NC(=O)c1c(F)c(F)c(F)c(F)c1F	< 0	183
NC(=S)N/N=C/c1ccc2c(c1)OCCO2	< 0	263

SMILES	area under cytotoxicity dose-response curve [1]	area under intracellular growth-inhibition dose-response curve [2]
S=C(Nc1ccccc1)Nc1ccc(OCc2ccccc2)cc1	< 0	272
CCOc1ccc(-c2cc(C)[n+](CCc3ccc(OC)c(OC)c3)c(-c3ccc(OCC)cc3)c2)cc1.[O-][Cl+3]([O-])([O-])[O-]	102	60.7
CCC(CO)NCCNC(CC)CO (configuration not stated)	88.1	154
Cc1ccc(C[n+]2c(-c3ccc(C)cc3)cc(-c3ccc(C)cc3)cc2-c2ccc(C)cc2)cc1.[O-][Cl+3]([O-])([O-])[O-]	59.3	253
Cc1ccccc1NC(=O)COC(=O)c1cc(S(=O)(=O)N2CCOCC2)ccc1C	23.2	34.5
CC[N+](C)(CC)CCCCOc1ccc2c(c1)C(=O)c1cc(OCCCC[N+](C)(CC)CC)ccc1-2.[I-]	51.3	175
O=[N+]([O-])c1ccc(CN2CCN(c3ccc(F)cc3)CC2)o1	< 0	245
O=C(/C=C/c1ccc([N+](=O)[O-])o1)NNC(=O)c1ccc(F)cc1	51.9	19.6
COc1ccc(/C=N/Nc2cc(C)nc3ccc(OC)cc23)c(OC)c1	42.9	151
CC(NC(=O)c1ccc(F)cc1)c1ccc(F)cc1 (configuration not stated)	31.2	230
Cc1ccc2sc(N3CCN(C(=O)c4ccc([N+](=O)[O-])o4)CC3)nc2c1C	11.3	12.2
N#C/C(=N\Nc1ccc(Cl)cc1)C(N)=S	16.4	102
Cc1nnc(SCC2=C(C(=O)O)N3C(=O)C(NC(=O)Cn4nc(C)c(Cl)c4C)C3SC2)s1 (configuration not stated)	82.6	112
CCCCC(=O)NCc1ccc(F)cc1	< 0	199
O=C(NCCC1CCCC1)c1cccs1	13.7	200
NC1=NC(=O)/C(=C/c2ccc(Cl)cc2Cl)S1	< 0	129
CN(C)CCSc1nc2cc(S(=O)(=O)N3CCCCC3)ccc2o1	11.5	1.9
S=C(Nc1ccc(N2CCOCC2)cc1)Nc1ccc2snnc2c1	57.1	235
CC1CC(C)CN(C(=O)c2ccc(CNc3c(N4CCCC4)c(=O)c3=O)cc2)C1 (configuration not stated)	166	179
COc1ccc(/C=N/NC(=O)c2ccncc2)c(OC)c1	28	227
NC(=S)N/N=C/c1ccc(-c2ccc(SC(F)F)cc2)o1	46.9	271

SMILES	area under cytotoxicity dose-response curve [1]	area under intracellular growth-inhibition dose-response curve [2]
COc1cccc2c1C(=O)c1c(O)c3c(c(O)c1C2=O)C[C@@](O)(C(=O)CO)C[C@@H]3O[C@H]1C[C@H](N)[C@H](O)[C@H](C)O1.Cl	147	117
COc1ccc(C(=O)COC(=O)CNC(=O)c2ccc(C)s2)c(OC)c1	< 0	29.9
Cc1cc(/C=N/NC(N)=S)c(C)n1-c1ccc(Cl)c(Cl)c1	< 0	257
CC1CCN(Cc2nc(-c3ccccc3)no2)CC1.Cl	111	175
O=C(NC(=S)Nc1ccc(-c2nc3ncccc3o2)cc1)c1ccccc1F	< 0	138
CCCC(=O)NC(=S)Nc1ccc(NC(=O)c2cccs2)cc1	8.63	261
COc1ccc(CN(C)C(=O)c2cccc(S(=O)(=O)N3CCCc4ccccc43)c2)c(OC)c1OC	16.4	144
Cc1nc(N/N=C\c2ccc3c(c2)OCO3)sc1C	150	252
CCC(=O)N1NC(=C2C(=O)N(C)C(=O)N(C)C2=O)CC1c1ccccc1 (configuration not stated)	23.3	122
CCC(=O)N1CCN(c2ccc(NC(=O)c3ccc([N+](=O)[O-])o3)cc2)CC1	3.32	47.9
O=C(NN=C(Cc1ccccc1)Cc1ccccc1)c1ccncc1	7.4	257
C=C1C(=O)O[C@@H]2C[C@@H](C)[C@@H]3C=CC(=O)[C@@]3(C)[C@@H](OC(C)=O)[C@H]12	118	46.3
Cc1ccc2nc(C)cc(S)c2c1	< 0	108
CC(=O)Nc1sc(N/N=C/c2ccc(O)cc2)nc1-c1ccc(C)cc1	84.1	181
O=C(CC1CC2CCC1C2)NCc1cccs1 (configuration not stated)	65.1	193
C/C(=N\NC(N)=S)c1ccc2c(c1)OCCO2	25.3	196
CCc1ccc(C(=O)NCc2cccs2)s1	17.6	220
Fc1ccc(C2=CC(c3cccs3)n3nnnc3N2)cc1 (configuration not stated)	< 0	216
O=C(NCc1ccco1)c1cc2ccccc2o1	135	105
